Tests used:
platelet function [1] = experiment: bleeding time test (in-vivo); set-up: species or system patient; conditions: after taking an aspirin, versus before
Source text: The bleeding time of a patient, which is the length of time blood continues to flow after the skin of a patient has been punctured or cut, has been used to identify patients having abnormal bleeding tendencies or platelet dysfunction or low number of platelets. The bleeding time test is an in-vivo test which involves making a standardized incision on the skin then applying a round disc of standardized blotter paper to the enlarging blood droplet adjacent to the incision for precisely thirty (30) seconds, then rotating the blotter paper and applying a fresh edge of the disc to the bleeding incision, and repeating this process until bleeding has stopped. The sequential blotches of blood on the blotter paper should not intersect. The total number of dried blotches of blood on the blotter paper divided by the number two (2) gives the duration of bleeding in minutes. […] The conditions for consistent blood flow and clotting may be set up. For example, the incision area may be wiped with alcohol which is allowed to completely dry. […] To calculate the total bleeding time, the number of blotches 28 may be counted and divided by two to arrive at the bleeding time to the nearest thirty (30) second interval. Alternatively, the bleeding time may be calculated with a stopwatch.

platelet function [2] = experiment: bleeding volume test (in-vivo, blotter paper blotch area); set-up: species or system patient; conditions: after taking an aspirin, versus before
Source text: Bleeding volume is the volume of blood lost during a bleeding time test. Bleeding time is a total length of time between the moment a standardized tiny superficial incision is made in the skin of a patient and the moment the bleeding stops. […] The blotter paper 14 absorbs the blood 16 oozing out of the incision 18 until the patient 10 stops bleeding. One or more blotter papers 14 may be necessary to absorb all of the blood 16.
The in-vivo bleeding volume test results of the patient 10 is indicative of a patient's excessive bleeding tendencies, platelet function and platelet number.
Referring now to FIG. 1, a medical professional conducts the following procedure on the patient 10 being treated. The conditions for consistent blood flow and clotting may be set up. For example, the incision area may be wiped with alcohol which is allowed to completely dry. The patient may either sit in a chair with the forearm in a comfortable stable position or reclining with the forearm at heart level. A blood pressure (e.g., sphygmomanometer) cuff 26 may be placed on an upper arm 22 of the patient 10. By way of example and not limitation, the blood pressure cuff 26 may be inflated to about 40 mm Hg to regulate a constant venous blood pressure in the forearm 24 of the patient 10. […] A round disc blotter paper 14 typically used for determining bleeding time may be placed at the edge of the incision 18. […]

platelet function [3] = conditions: background statement on the bleeding time test; cited from earlier work

Compound: CC(=O)Oc1ccccc1C(=O)O [aspirin]
- increase the bleeding time (platelet function [1]): 72%
- increases bleeding volume (platelet function [2]): 400%
- difference in mean bleeding time of persons who take aspirin and those that take no medication (platelet function [3]): ≤ 2 standard deviations

Reference: patent US20110244589A1, “IN-VIVO PLATELET FUNCTION TEST BY ONLINE BLEEDING VOLUME MEASUREMENT” (priority 2009, published 2011)
